# Data taken from article PMC9441068, “Novel eIF4A1 inhibitors with anti‐tumor activity in lymphoma” (Molecular Medicine, 2022).
# What was measured:
# Format in all cases: biochemical
# human eIF4A1 [1] = molecular target: T1, human eIF4A1 (Homo sapiens, UniProt P60842); assay: malachite green phosphate release (RNA-dependent ATPase) assay; also Cy3/Cy5 RNA unwinding assay (IC50 […])
# human eIF4A1 [2] = molecular target: T1, human eIF4A1; assay: malachite green phosphate release (RNA-dependent ATPase) assay
# human eIF4A1 [3] = molecular target: T1, human eIF4A1; assay: malachite green phosphate release (RNA-dependent ATPase) assay; also Cy3/Cy5 RNA unwinding assay (IC50 […]); remark: listed apart in the source
# T1 sequence (P60842 2-406): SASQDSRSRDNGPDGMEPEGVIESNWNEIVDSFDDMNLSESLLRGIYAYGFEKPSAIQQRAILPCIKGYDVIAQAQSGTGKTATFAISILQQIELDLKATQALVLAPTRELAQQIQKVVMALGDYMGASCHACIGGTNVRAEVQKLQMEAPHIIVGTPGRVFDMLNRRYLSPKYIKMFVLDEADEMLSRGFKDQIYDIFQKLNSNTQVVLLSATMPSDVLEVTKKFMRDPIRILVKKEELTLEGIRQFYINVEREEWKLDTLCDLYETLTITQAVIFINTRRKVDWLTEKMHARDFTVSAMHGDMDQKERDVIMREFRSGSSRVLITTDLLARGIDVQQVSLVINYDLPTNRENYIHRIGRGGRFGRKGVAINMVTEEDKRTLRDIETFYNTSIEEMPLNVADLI
IC50 (human eIF4A1 [2]),Compound,also measured
,CC(=NNC(=O)c1nnn(-c2nonc2N)c1CSc1nncn1C)c1ccccc1O [RBF197],IC50 (human eIF4A1 [1]): 0.0552 nM
0.209 nM,CC(=NNC(=O)c1nnn(-c2nonc2N)c1CSc1nncn1C)c1ccccc1O [RBF203],
,Cn1cnnc1SCc1c(C(=O)NN=Cc2ccccc2O)nnn1-c1nonc1N [RBF208],IC50 (human eIF4A1 [3]): 0.0741 nM
3000 nM,CC(=NNC(=O)c1nnn(-c2nonc2N)c1CSc1nncn1C)c1cccc(O)c1 [RBF98],
